Measured values taken from the NIST ThermoML archive (doi:10.1016/j.tca.2012.05.004).

Assay: xn = mol fraction of the nth substance listed
Details: 101.3 kPa, Liquid, Vibrating tube method

ClCCCl [1,2-dichloroethane] + CCC(C)O
mass density [kg/m3]
Details | 288.15 K | 293.15 K | 298.15 K | 303.15 K | 308.15 K | 313.15 K
x2 = 0.0503 | 1231.77 | 1224.62 | 1217.45 | 1210.25 | 1203.02 | 1195.77
x2 = 0.0999 | 1204.93 | 1197.88 | 1190.8 | 1183.69 | 1176.55 | 1169.4
x2 = 0.1498 | 1179.01 | 1172.06 | 1165.09 | 1158.09 | 1151.05 | 1143.99
x2 = 0.1999 | 1153.69 | 1146.88 | 1140.03 | 1133.14 | 1126.22 | 1119.27
x2 = 0.2505 | 1128.43 | 1121.76 | 1115.05 | 1108.3 | 1101.51 | 1094.68
x2 = 0.2963 | 1106.34 | 1099.8 | 1093.22 | 1086.6 | 1079.94 | 1073.22
x2 = 0.3503 | 1080.63 | 1074.29 | 1067.22 | 1061.5 | 1055.06 | 1048.25
x2 = 0.3995 | 1057.91 | 1051.71 | 1045.45 | 1039.11 | 1032.79 | 1026.29
x2 = 0.4501 | 1034.98 | 1028.92 | 1022.81 | 1016.66 | 1010.45 | 1004.19
x2 = 0.4993 | 1013.03 | 1007.13 | 1001.19 | 995.186 | 989.131 | 983.023
x2 = 0.5486 | 991.648 | 985.947 | 980.168 | 974.12 | 968.223 | 962.22
x2 = 0.6 | 969.557 | 963.995 | 958.381 | 952.707 | 946.966 | 941.176
x2 = 0.6493 | 948.744 | 943.35 | 937.897 | 932.387 | 926.811 | 921.174
x2 = 0.6999 | 928.023 | 922.806 | 917.532 | 912.188 | 906.776 | 901.308
x2 = 0.7499 | 907.77 | 902.736 | 897.63 | 892.466 | 887.227 | 881.93
x2 = 0.7998 | 887.96 | 883.21 | 878.173 | 873.288 | 868.11 | 863.093
x2 = 0.8498 | 868.538 | 863.861 | 859.123 | 854.308 | 849.413 | 844.444
x2 = 0.8997 | 849.217 | 844.779 | 840.238 | 835.615 | 830.908 | 826.085
x2 = 0.95 | 829.951 | 825.697 | 821.349 | 816.932 | 812.451 | 807.826
